± gives the standard deviation of the averaged measurements.
What was measured:
Test in all cases: level (log10 ratio to DMSO vehicle control); higher = higher biomarker level / cell amount than vehicle control
Conditions in all cases: in DMSO
[1] = compound: C=CC(=O)OCCC(F)(F)C(F)(F)C(F)(F)C(F)(F)F [2-(Perfluorobutyl)ethyl acrylate]
Protocol: (§1)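 BioMAP Diversity Plus panel of 12 human primary cell co-culture systems (3C, 4H, LPS, SAg, BT, BF4T, BE3C, CASM3C, HDF3CGF, KF3CT, MyoF, Mphg). Compounds were added 1 h before stimulation and left for 24 h (MyoF 48 h; BT 72 h for soluble read-outs or 6 d for IgG). Biomarkers were read by ELISA, cytotoxicity by SRB, PBMC viability and proliferation by Alamar Blue. Each well value was divided by the mean of 8 DMSO control wells on the same plate and log10 transformed; duplicate blinded samples were tested at 4 concentrations.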

[2] = compound: CNS(=O)(=O)C(F)(F)C(F)(F)C(F)(F)C(F)(F)C(F)(F)C(F)(F)C(F)(F)C(F)(F)F [N-Methylperfluorooctanesulfonamide]
Protocol: as §1

[3] = compound: FC(F)(F)C(F)(F)C(F)(F)C(F)(F)C(F)(F)C(F)(F)C(F)(F)CCI [1-Iodo-1H,1H,2H,2H-perfluorononane]
Protocol: as §1

Perfluorooctanamidine = compound: N=C(N)C(F)(F)C(F)(F)C(F)(F)C(F)(F)C(F)(F)C(F)(F)C(F)(F)F [Perfluorooctanamidine]
Protocol: as §1

[4] = compound: O=C(O)C(F)(F)OC(F)(F)C(F)(F)OC(F)(F)C(F)(F)C(F)(F)C(F)(F)F [Perfluoro-3,6-dioxadecanoic acid]
Protocol: as §1

[5] = compound: O=C(O)CCC(F)(F)C(F)(F)C(F)(F)F [3:3 Fluorotelomer carboxylic acid]
Protocol: as §1

[6] = compound: OCC(F)(F)C(F)(F)C(F)(F)C(F)(F)C(F)(F)C(F)F [1H,1H,7H-Dodecafluoro-1-heptanol]
Protocol: as §1

Test System	level (log10) ([1]; 6700 nM)	level (log10) ([1]; 20000 nM)	level (log10) ([1]; 60000 nM)	level (log10) ([2]; 6700 nM)	level (log10) ([2]; 20000 nM)	level (log10) ([2]; 60000 nM)	level (log10) ([3]; 6700 nM)	level (log10) ([3]; 20000 nM)	level (log10) (Perfluorooctanamidine; 6700 nM)	level (log10) (Perfluorooctanamidine; 20000 nM)	level (log10) (Perfluorooctanamidine; 60000 nM)	level (log10) ([4]; 6700 nM)	level (log10) ([4]; 20000 nM)	level (log10) ([4]; 60000 nM)	level (log10) ([5]; 6700 nM)	level (log10) ([5]; 20000 nM)	level (log10) ([5]; 60000 nM)	level (log10) ([6]; 6700 nM)	level (log10) ([6]; 20000 nM)	level (log10) ([6]; 60000 nM)
LPS:IL-1alpha	0.009 ± 0.023	0.031 ± 0.013	0.02 ± 0.021	0.0405 ± 0.071	0.107 ± 0.067	0.124 ± 0.078	-0.008 ± 0.041	0.031 ± 0.016	0.011 ± 0.024	-0.0095 ± 0.049	-0.003	-0.008 ± 0.0085	-0.0225 ± 0.03	-0.04 ± 0.013	-0.005 ± 0.0071	-0.0245 ± 0.0078	-0.0095 ± 0.029	-0.006 ± 0.0042	-0.031 ± 0.02	0.0025 ± 0.046
BF4T:CCL26/Eotaxin-3	-0.0005 ± 0.018	-0.0295 ± 0.023	-0.019 ± 0.02	-0.203 ± 0.005	-0.199 ± 0.015	-0.196 ± 0.047	-0.0075 ± 0.0021	-0.061 ± 0.0099	0.0375 ± 0.044	-0.0585 ± 0.026	-0.106	-0.241 ± 0.012	-0.23 ± 0.018	-0.231 ± 0.046	-0.015 ± 0.018	-0.0095 ± 0.026	0.009 ± 0.018	0.0025 ± 0.043	-0.0005 ± 0.036	0.013 ± 0.028
4H:CD62P/P-selectin	0.0065 ± 0.064	-0.064 ± 0.047	-0.102 ± 0.036	0.0265 ± 0.011	-0.0345 ± 0.011	-0.0685 ± 0.0092	0.0005 ± 0.037	-0.0185 ± 0.06	-0.0165 ± 0.012	-0.007 ± 0.0085	-0.032	0.015 ± 0.09	0.0205 ± 0.066	0.0165 ± 0.013	0.0135 ± 0.042	0.0445 ± 0.025	-0.003 ± 0.02	-0.003 ± 0.078	0.051 ± 0.067	0.032 ± 0.016
3C:HLA-DR	0.035 ± 0.013	0.0285 ± 0.0035	-0.046 ± 0.058	-0.0605 ± 0.012	-0.102 ± 0.016	-0.072 ± 0.028	-0.001 ± 0.017	0.0155 ± 0.025	0.0025 ± 0.016	-0.0295 ± 0.0064	-0.035	0.0345 ± 0.04	0.021 ± 0.044	0.016 ± 0.071	-0.0055 ± 0.029	-0.0155 ± 0.013	-0.0105 ± 0.0092	0.008 ± 0.018	-0.0055 ± 0.016	-0.0105 ± 0.013
BE3C:CXCL11/I-TAC	0.0035 ± 0.00071	-0.0065 ± 0.012	-0.018 ± 0.0028	-0.03 ± 0.0099	-0.0165 ± 0.018	-0.043 ± 0.0028	-0.004 ± 0.0057	-0.001 ± 0.0042	-0.0055 ± 0.0078	-0.014 ± 0.016	-0.014	0.0945 ± 0.00071	0.124 ± 0.011	0.0095 ± 0.022	-0.004 ± 0.021	0.0045 ± 0.005	0.0005 ± 0.0035	0.003 ± 0.02	0.0115 ± 0.012	0.007 ± 0.021
BT:B cell Proliferation	-0.018 ± 0.0014	-0.0275 ± 0.011	-0.264 ± 0.063	0.006 ± 0.0028	-0.007 ± 0.023	-0.0195 ± 0.03	0.0135 ± 0.029	0.0045 ± 0.015	-0.0005 ± 0.011	-0.002 ± 0.017	-0.086	0.012 ± 0.0071	0.0415 ± 0.019	0.055 ± 0.011	-0.018 ± 0.0085	-0.0115 ± 0.042	-0.011 ± 0.02	-0.014 ± 0.0028	-0.035 ± 0.0014	-0.04 ± 0.02
3C:CXCL9/MIG	0.0135 ± 0.013	-0.011 ± 0.0099	-0.0025 ± 0.0035	0.001 ± 0.0014	-0.0075 ± 0.011	0.022 ± 0.0057	0.002 ± 0.0042	0.007 ± 0.013	0.007 ± 0.0071	-0.0165 ± 0.0035	0.005	-0.015 ± 0.02	-0.0185 ± 0.019	-0.002 ± 0.017	0.0045 ± 0.0021	-0.001 ± 0.0028	0.001 ± 0.0014	0.0065 ± 0.0078	-0.0005 ± 0.015	-0.0015 ± 0.0021
LPS:CD40	-0.0445 ± 0.00071	-0.044 ± 0.035	-0.237 ± 0.035	-0.0545 ± 0.083	-0.0265 ± 0.023	-0.0375 ± 0.0078	-0.0105 ± 0.019	0.034 ± 0.025	-0.0145 ± 0.04	-0.0525 ± 0.021	-0.148	-0.0125 ± 0.0078	-0.0265 ± 0.023	-0.14 ± 0.055	-0.0035 ± 0.021	0.027 ± 0.028	-0.014 ± 0.051	-0.0085 ± 0.03	0.026 ± 0.023	-0.013 ± 0.038

— the supplement of paper PMC10331698
